The text below walks through data of ChEMBL document CHEMBL5260811, “Drug development against tuberculosis: Impact of alkaloids” (Eur J Med Chem, 2017).

In brackets after ≈: the same amount, converted by molar mass. Starred links: 1 amine or outer side, 2 acyl side, 3 side chain; linkers in the order of their positions; H or OH if unused. Positions of bridges follow the written chain, without caps; N, C: chain ends. Non-standard residues stand in square brackets, D forms with d. Residues, ends and D or L forms follow the SMILES beside them. ξ: configuration not given here. *: point of attachment. X2 = N=C1NCCC([C@H](N[*:1])C(=O)[*:2])N1; ΔAla(Z-3-ureido) = NC(=O)N/C=C(\N)C(=O)O; ξβ3hOrn = NCCCC(N)CC(=O)*; Dap = NC[C@H](N)C(=O)O

Experiment [1] relates to Mycobacterium tuberculosis. The experiment can be described thus: Antimycobacterial activity against Mycobacterium tuberculosis Rv2163c harbouring pbpB gene. It counts as functional.
The test system of experiment [2] is Mycobacterium tuberculosis. The experiment can be described thus: Antimycobacterial activity against Mycobacterium tuberculosis Rv2163c harbouring ftsI gene. Format: functional.
In experiment [3] the test system is Mycobacterium tuberculosis. The experiment can be described thus: Antimycobacterial activity against Mycobacterium tuberculosis harbouring thyA gene. Format: functional.
In experiment [4] the test system is Mycobacterium tuberculosis. The experiment in a line: Antimycobacterial activity against Mycobacterium tuberculosis Rv0503c harbouring cmaA2 gene. Format: functional.
In experiment [5] the test system is Mycobacterium tuberculosis. The experiment can be described thus: Antimycobacterial activity against drug-resistant Mycobacterium tuberculosis. Format: functional.
The test system of experiment [6] is Mycobacterium tuberculosis. The experiment can be described thus: Antimycobacterial activity against Mycobacterium tuberculosis Rv1305 harbouring atpE gene. It counts as functional.
The test system of experiment [7] is Mycobacterium tuberculosis. The experiment in a line: Antimycobacterial activity against Mycobacterium tuberculosis Rv2068c harbouring blaC gene. Format: functional.
Experiment [8] deals with Mycobacterium tuberculosis. The experiment in a line: Antimycobacterial activity against Mycobacterium tuberculosis Rv0006 harbouring gyrA gene. Format: functional.
The subject of experiment [9] is Mycobacterium tuberculosis. The experiment can be described thus: Antimycobacterial activity against Mycobacterium tuberculosis Rv0005 harbouring gyrB gene. Format: functional.
The test system of experiment [10] is Mycobacterium tuberculosis. The experiment in a line: Antimycobacterial activity against Mycobacterium tuberculosis Rv2196 harbouring qcrB gene. Format: functional.
In experiment [11] the test system is Mycobacterium tuberculosis. The experiment in a line: Antimycobacterial activity against Mycobacterium tuberculosis harbouring rrs gene. Format: functional.
The test system of experiment [12] is Mycobacterium tuberculosis. The experiment in a line: Antimycobacterial activity against Mycobacterium tuberculosis harbouring katG gene. It counts as functional.
The subject of experiment [13] is Mycobacterium tuberculosis. The experiment can be described thus: Antimycobacterial activity against Mycobacterium tuberculosis harbouring fdxA gene. Format: functional.
The subject of experiment [14] is Mycobacterium tuberculosis. The experiment in a line: Antimycobacterial activity against Mycobacterium tuberculosis Rv3790 harbouring DprE1 gene. Format: functional.
Experiment [15] has as its system Mycobacterium tuberculosis. The experiment can be described thus: Antimycobacterial activity against Mycobacterium tuberculosis Rv1484 harbouring inhA gene. It counts as functional.
Experiment [16] deals with Mycobacterium tuberculosis. The experiment in a line: Antimycobacterial activity against Mycobacterium tuberculosis harbouring rpsL gene. It counts as functional.
Experiment [17] has as its system Mycobacterium tuberculosis. The experiment can be described thus: Antimycobacterial activity against Mycobacterium tuberculosis harbouring embCAB gene. Format: functional.
For experiment [18], the system named is Mycobacterium tuberculosis. The experiment can be described thus: Antimycobacterial activity against Mycobacterium tuberculosis Rv0701 harbouring rplC gene. Format: functional.
Experiment [19] has as its system Mycobacterium tuberculosis. The experiment in a line: Antimycobacterial activity against Mycobacterium tuberculosis Rv2156c harbouring mraY gene. Format: functional.
Experiment [20] relates to Mycobacterium tuberculosis. The experiment in a line: Antimycobacterial activity against rifampicin-resistant Mycobacterium tuberculosis. Format: functional.
Experiment [21] relates to Mycobacterium tuberculosis. The experiment in a line: microbe, parasite or virus in culture.
In experiment [22] the test system is Mycobacterium tuberculosis. The experiment in a line: Antimycobacterial activity against Mycobacterium tuberculosis harbouring pncA gene. It counts as functional.
Experiment [23] deals with Mycobacterium tuberculosis. The experiment in a line: Antimycobacterial activity against Mycobacterium tuberculosis Rv0706 harbouring rplV gene. It counts as functional.

Regarding `C[C@@H](O)[C@H]1C(=O)N2C(C(=O)O)=C(SCCNC=N)C[C@H]12` [IMIPENEM ANHYDROUS], the MIC in experiment [1] and in [2] was 0.16 µg/mL (≈ 0.534 µM) throughout.

In experiment [3], `Nc1ccc(C(=O)O)c(O)c1` [AMINOSALICYLIC ACID] returned an MIC of 1 µg/mL (≈ 6.53 µM).

In experiment [4], `CC(=O)Nc1ccc(/C=N/NC(N)=S)cc1` [AMITHIOZONE] displayed an MIC of 0.1 µg/mL (≈ 0.423 µM).

Consider `COc1nc2ccc(Br)cc2cc1[C@@H](c1ccccc1)[C@@](O)(CCN(C)C)c1cccc2ccccc12` [BEDAQUILINE], for which the MIC came to 60 µg/mL (≈ 108 µM) in [5] and 0.063 µg/mL (≈ 0.113 µM) in experiment [6].

On to `C[C@@H](O)[C@H]1C(=O)N2C(C(=O)O)=C(S[C@@H]3CN[C@H](C(=O)N(C)C)C3)[C@H](C)[C@H]12` [MEROPENEM], for which the MIC in experiment [1] and in experiment [7] was 0.5 µg/mL (≈ 1.3 µM) each time.

`CC1COc2c(N3CCN(C)CC3)c(F)cc3c(=O)c(C(=O)O)cn1c23` (stereo not given) [OFLOXACIN]: the MIC in [8] and in [9] was 0.125 µg/mL (≈ 0.346 µM) throughout.

In turn, `CCc1nc2ccc(Cl)cn2c1C(=O)NCc1ccc(N2CCC(c3ccc(OC(F)(F)F)cc3)CC2)cc1` [TELACEBEC] gave an MIC in experiment [10] of 2.7 nM (≈ 1.5 ng/mL).

On to `N=C1NCCC([C@@H]2NC(=O)/C(=C/NC(N)=O)NC(=O)[C@H](CNC(=O)CC(N)CCCN)NC(=O)[C@H](CO)NC(=O)[C@@H](N)CNC2=O)N1` (stereo partly drawn) (H-[Dap]S[Dap](ξβ3hOrn)[ΔAla(Z-3-ureido)][X2]; lactam 1-C), for which, in [11], the MIC was 1.25 µg/mL (≈ 1.87 µM).

On to `CCOC(=O)NC(=O)c1ccsc1NC(=O)c1nc2ccccc2s1`, for which the MIC in experiment [12], in [13] and in [14] was 0.01 µg/mL (≈ 0.0266 µM) each time.

Turning to `CCCc1cc(C(N)=S)ccn1` [PROTIONAMIDE], the MIC in experiment [15] stood at 0.3 µg/mL (≈ 1.66 µM).

Regarding `CN[C@@H]1[C@H](O[C@H]2[C@H](O[C@H]3[C@H](O)[C@@H](O)[C@H](N=C(N)N)[C@@H](O)[C@@H]3N=C(N)N)O[C@@H](C)[C@]2(O)C=O)O[C@@H](CO)[C@H](O)[C@H]1O` [STREPTOMYCIN], the MIC in experiment [11] and in experiment [16] was 2 µg/mL (≈ 3.44 µM) in each case.

On to `CC[C@@H](CO)NCCN[C@@H](CC)CO` [ETHAMBUTOL], for which the MIC in [17] was determined as 1 µg/mL (≈ 4.89 µM).

In [18], `O=C([C@@H](O)CO)N1CC=C(c2c(F)cc(N3C[C@H](COc4ccon4)OC3=O)cc2F)CC1` [POSIZOLID] registered an MIC of 0.25 µg/mL (≈ 0.537 µM).

In the case of `CCCCCCCCCC(=O)O[C@H]1[C@@H](OC)[C@H]([C@H](O[C@@H]2OC(C(=O)N[C@@H]3CCC[C@H](C)NC3=O)=C[C@@H](O)[C@H]2O)[C@H](N)O)O[C@@H]1n1ccc(=O)[nH]c1=O`, the MIC in experiment [19] was determined as 0.12 µg/mL (≈ 0.162 µM).

The compound `COc1ccc2c3c(c4cc(OC)c(OC)cc4c2c1)CN1CCCC1C3` (stereo not drawn) [(+/-)-DEOXYTYLOPHORININE] returned an MIC in experiment [20] of 6.25 µg/mL (≈ 17.2 µM).

With `CO[C@H]1/C=C/O[C@@]2(C)Oc3c(C)c(O)c4c(O)c(c(/C=N/N5CCN(C)CC5)c(O)c4c3C2=O)NC(=O)/C(C)=C\C=C\[C@H](C)[C@H](O)[C@@H](C)[C@@H](O)[C@@H](C)[C@H](OC(C)=O)[C@@H]1C` [RIFAMPIN], the MIC in experiment [21] was 0.05 µg/mL (≈ 0.0608 µM).

As for `NC(=O)c1cnccn1` [PYRAZINAMIDE], in experiment [22], the MIC is 20 µg/mL (≈ 162 µM).

Regarding `CC[C@H]1OC(=O)[C@H](C)[C@@H](O[C@H]2C[C@@](C)(OC)[C@@H](O)[C@H](C)O2)[C@H](C)[C@@H](O[C@@H]2O[C@H](C)C[C@H](N(C)C)[C@H]2O)[C@](C)(OC)C[C@@H](C)C(=O)[C@H](C)[C@@H](O)[C@]1(C)O` [CLARITHROMYCIN], in experiment [23], the MIC is 1 µg/mL (≈ 1.34 µM).
